Experimental data as given in patent US8674096B2, “Substituted imidazo[1,5-a]quinoxalin-4-ones as phosphodiesterase 9 inhibitors” (priority 2009, dated 2014).

Columns and labels:
[1] = target: T1, PDE9 (Homo sapiens, UniProt O76083); assay: PDE9-inhibiting activity (SPA, 3H-cGMP degradation); type: biochemical
T1 construct: made in house
Method: The PDE9 used in the present experiment was expressed/purified by the method as in, for example, Guipponi et al., and Fisher et., al. (Fisher, D. A., et al., J. Biol. Chem., 273: pp. 15559-15564 (1998), Guipponi, M., et al., Hum. Genet., 103: pp. 386-392 (1998)).
The PDE9-inhibiting activity was measured by the following method. That is, to a buffer solution containing tris(hydroxymethyl)aminomethane-hydrochloric acid (40 mM, pH 8.0), magnesium chloride (5 mM), and 2-mercaptoethanol (4 mM) were added cGMP (1 μM) and ^3H-cGMP (0.33 μCi/ml) to give a substrate buffer solution. A test substance solution and an enzyme solution which had been adjusted to an optimal concentration were added thereto to perform a reaction at 30° C. The enzyme reaction was stopped by the addition of Scintillation Proximity Assay (SPA) Beads (GE Healthcare, UK) containing 5 mM 3-isobutyl-1-methylxanthine (IBMX). For the enzyme activity, the amount of 5′-GMP, which is a reaction degradation product bound to SPA beads, was measured with a TopCount microplate reader (Hewlett Packard, USA).
The inhibitory rate was calculated by taking the radioactivity of the control containing no test substance as (A), taking the radioactivity of the blank containing no enzyme as (B), and taking the radioactivity of the test substance as (C), and using the following equation. Inhibitory rate=100−{(C)−(B)/(A)−(B)}×100(%)

T1 sequence (O76083 whole entry): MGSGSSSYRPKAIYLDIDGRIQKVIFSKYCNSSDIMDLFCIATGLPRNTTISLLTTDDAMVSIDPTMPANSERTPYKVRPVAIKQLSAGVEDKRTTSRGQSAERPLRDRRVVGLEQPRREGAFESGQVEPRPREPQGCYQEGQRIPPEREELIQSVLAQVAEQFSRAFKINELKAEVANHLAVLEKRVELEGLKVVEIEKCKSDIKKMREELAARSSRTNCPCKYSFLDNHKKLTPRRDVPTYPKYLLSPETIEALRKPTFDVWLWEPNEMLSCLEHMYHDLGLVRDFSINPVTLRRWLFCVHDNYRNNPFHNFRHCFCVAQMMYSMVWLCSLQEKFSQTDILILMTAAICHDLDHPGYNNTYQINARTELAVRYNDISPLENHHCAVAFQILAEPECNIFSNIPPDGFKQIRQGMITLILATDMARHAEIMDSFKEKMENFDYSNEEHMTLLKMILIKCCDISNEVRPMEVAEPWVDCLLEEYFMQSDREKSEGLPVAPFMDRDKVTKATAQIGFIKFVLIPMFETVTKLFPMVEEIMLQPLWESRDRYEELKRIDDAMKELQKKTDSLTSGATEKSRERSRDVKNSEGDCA

SMILES	melting point	IC50 [1] [nM]
Cc1cc2c(cc1C(=O)N1CCc3c(Cl)cccc3C1)[nH]c(=O)c1nnc(C3CCCC3)n12 [Example 91]	236 to 237 °C	20
Cl.O=C(c1cc2[nH]c(=O)c3cnc(C4CCOCC4)n3c2cc1C1CC1)N1CCc2cc(Cl)ccc21 [Example 263]	339 to 342 °C (dec.)	0.9
O=C(c1cc2[nH]c(=O)c3cnc(C4CCOCC4)n3c2cc1Cl)N1CCc2cccnc21 [Example 279]	275 °C (dec.)	10
Cc1cc2c(cc1C(=O)N1CCc3cc(Cl)ccc31)[nH]c(=O)c1nnc(C3CCCOC3)n12.Cl (stereo not shown) [Example 281]	298 to 301 °C	1.6
Cc1cc2c(cc1C(=O)N1Cc3ccccc3C1)[nH]c(=O)c1nnc(C3CCOCC3)n12 [Example 93]	305 °C (dec.)	15
COCc1cc2c(cc1C(=O)N1CCc3cc(F)c(F)cc31)[nH]c(=O)c1nnc(C3CCOCC3)n12.Cl [Example 519]	266 to 269 °C	6.8
Cc1cc2c(cc1C(=O)N1CCc3cc(Cl)ccc31)[nH]c(=O)c1cnc([C@H]3CC[C@@H](O)CC3)n12.Cl [Example 330]	204 to 206 °C	1.2
Cc1cc2c(cc1C(=O)N1CCc3cc(Br)cnc31)[nH]c(=O)c1nnc(C3CCOC3)n12.Cl (stereo not shown) [Example 312]	242 to 243 °C	20
Cc1cc2c(cc1C(=O)N1Cc3ccc(Cl)cc3C1)[nH]c(=O)c1cnc(C3CCOCC3)n12.Cl [Example 103]	210 to 214 °C	11
Cc1cc2c(cc1C(=O)N1CCc3cc(Cl)ccc31)[nH]c(=O)c1cnc([C@H]3CC[C@H](C(N)=O)CC3)n12 [Example 528]	234 to 237 °C	0.9
Cc1cc2c(cc1C(=O)N1CCc3cc(Cl)c(F)cc31)[nH]c(=O)c1nnc(C3CCOCC3)n12 [Example 291]	309 to 311 °C	2.8
Cc1cc2c(cc1C(=O)N1CCc3cc(Cl)ccc31)[nH]c(=O)c1nnc(C(F)C3CC3)n12.Cl (stereo not shown) [Example 11, 7-[(5-chloro-2,3-dihydro-1H-indol-1-yl)carbonyl]-1-[cyclopropyl(fluoro)methyl]-8-methyl[1,2,4]triazolo[4,3-a]quinoxalin-4(5H)-one]	309 to 311 °C	3.1
Cc1cc2c(cc1C(=O)N1CCc3ccccc31)[nH]c(=O)c1cnc(C3CCCC3)n12 [Example 3, 1-cyclopentyl-7-(2,3-dihydro-1H-indol-1-ylcarbonyl)-8-methylimidazo[1,5-a]quinoxalin-4(5H)-one]	291 °C (dec.)	6.7
COCc1cc2c(cc1C(=O)N1CCc3cc(Cl)ccc31)[nH]c(=O)c1cnc(C3CCOCC3)n12.Cl [Example 300]	298 to 301 °C (dec.)	0.8
COCc1cc2c(cc1C(=O)N1CCc3ncccc3C1)[nH]c(=O)c1cnc(C3CCOCC3)n12 [Example 350]	172 to 175 °C	9.2
COCc1cc2c(cc1C(=O)N1CCc3cc(OC)ncc31)[nH]c(=O)c1cnc(C3CCOCC3)n12 [Example 333]	208 °C (dec.)	2.9
COCc1cc2c(cc1C(=O)N1CCc3cc(Cl)ccc31)[nH]c(=O)c1nnc(CC3CC3)n12.Cl [Example 522]	257 °C (dec.)	3.6
Cc1cc2c(cc1C(=O)N1CC(C)(C)c3cc(Cl)ccc31)[nH]c(=O)c1nnc(C3CCOCC3)n12.Cl [Example 517]	227 to 230 °C	0.9
Cl.O=C(c1cc2[nH]c(=O)c3cnc(C4CCOCC4)n3c2cc1OCCO)N1CCc2cc(Cl)ccc21 [Example 326]	303 to 306 °C (dec.)	1.2
Cc1cc2c(cc1C(=O)N1CCc3cc(F)ccc31)[nH]c(=O)c1nnc(C3(C)CCOCC3)n12.Cl [Example 322]	243 to 245 °C	29
COC(=O)c1cccc2c1CN(C(=O)c1cc3[nH]c(=O)c4cnc(C5CCOCC5)n4c3cc1C)CC2.Cl [Example 68]	192 to 194 °C	3.5
Cc1cc2c(cc1C(=O)N1CCc3cc(Cl)ccc31)[nH]c(=O)c1nnc([C@H]3CC[C@@H](O)CC3)n12 [Example 356]	277 to 279 °C	1.5
Cc1cc2c(cc1C(=O)N1CCc3sccc3C1)[nH]c(=O)c1cnc(C3CCOCC3)n12.Cl [Example 35]	283 to 285 °C	12
